Patent US20070232528A1, “Formulation comprising histone deacetylase inhibitors” (priority 2004, published 2007)
Values joined by “and” are separate entries in the source; they are usually repeats but may differ in a detail not shown here. Identical values can stand only once. Like-named read-outs stand apart in the source and are kept apart here.

Tests used:
HDAC 8 (Homo sapiens) = test: biochemical
Source text: (§1) in vitro HDAC assay for determination of IC50 values: The determination of histone deacetylase activity in recombinant HDAC proteins derived from expression in High5 insect cells is based on the specific deacetylation of an artificial substrate (Fluor de Lys, Biomol). The substrate turn over may be detected and quantified by fluorometry. By addition of a HDAC inhibitor the hydrolysis of the substrate is constrained resulting in a decreased fluorometric signal. IC50 values may be calculated from dose-response curves. The assay is separated in two steps: in the first step the substrate (Fluor de Lys/Biomol KI-104) is hydrolysed by histone deacetylases. In step two HDAC activity is terminated and the fluorophore is activated by the addition of a developer (Developer/Biomol KI-105). […] 25 μl substrate (1:100 dilution in reaction buffer) per well are added to start the reaction. A negative control without histone deacetylase activity and a positive control without HDAC inhibitor are treated likewise. The reaction is stopped after 15-60 min. by adding 50 μl developer (1:20 dilution in reaction buffer). After another 15 min. incubation time at room temperature the fluorescence signal is stable for 60 min and may be detected by a fluorescence reader (excitation filter: 390 nm, emission filter: 460 nm). […]

HDAC 6 = HDAC 6 (Homo sapiens, UniProt Q9UBN7); test: biochemical
Sequence of HDAC 6 (Q9UBN7 whole entry): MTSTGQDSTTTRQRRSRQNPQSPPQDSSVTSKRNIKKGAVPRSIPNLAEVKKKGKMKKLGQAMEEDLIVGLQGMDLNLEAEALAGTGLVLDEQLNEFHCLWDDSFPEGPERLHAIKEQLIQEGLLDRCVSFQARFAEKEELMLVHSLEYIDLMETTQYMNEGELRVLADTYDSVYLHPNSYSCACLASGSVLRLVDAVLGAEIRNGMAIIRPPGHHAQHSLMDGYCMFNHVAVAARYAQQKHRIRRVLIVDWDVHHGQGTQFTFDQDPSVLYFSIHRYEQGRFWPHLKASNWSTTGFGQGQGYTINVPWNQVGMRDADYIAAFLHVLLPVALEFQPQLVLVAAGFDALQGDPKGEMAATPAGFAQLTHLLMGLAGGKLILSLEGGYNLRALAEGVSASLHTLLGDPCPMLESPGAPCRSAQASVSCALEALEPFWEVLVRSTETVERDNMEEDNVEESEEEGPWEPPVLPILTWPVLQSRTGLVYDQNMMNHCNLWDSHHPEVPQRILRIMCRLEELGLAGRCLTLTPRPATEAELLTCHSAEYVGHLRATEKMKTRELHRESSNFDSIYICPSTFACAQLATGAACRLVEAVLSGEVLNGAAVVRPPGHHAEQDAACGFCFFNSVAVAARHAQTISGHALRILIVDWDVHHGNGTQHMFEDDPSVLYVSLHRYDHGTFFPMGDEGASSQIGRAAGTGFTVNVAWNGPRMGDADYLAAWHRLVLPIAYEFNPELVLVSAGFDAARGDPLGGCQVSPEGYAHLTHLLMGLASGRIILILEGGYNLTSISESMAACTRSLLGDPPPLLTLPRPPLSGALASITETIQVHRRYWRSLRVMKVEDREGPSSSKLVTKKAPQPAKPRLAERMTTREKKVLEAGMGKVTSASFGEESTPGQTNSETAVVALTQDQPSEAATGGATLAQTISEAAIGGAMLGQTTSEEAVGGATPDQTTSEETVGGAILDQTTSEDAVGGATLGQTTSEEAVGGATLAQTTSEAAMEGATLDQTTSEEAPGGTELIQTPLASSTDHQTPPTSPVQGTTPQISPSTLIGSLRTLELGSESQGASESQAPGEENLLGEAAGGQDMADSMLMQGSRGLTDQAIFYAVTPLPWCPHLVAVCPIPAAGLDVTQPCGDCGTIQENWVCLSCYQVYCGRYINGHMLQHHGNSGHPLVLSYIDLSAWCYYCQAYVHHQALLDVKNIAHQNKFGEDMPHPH
Source text: as §1

Histone H3 and H4 = test: Western blot of peripheral blood cells of patients, phase I/II trial; assay type: in vivo, human
Protocol: (§2) Blood samples were taken before and 6 h, 24 h as well as 48 h after treatment start.
(§3) Whole cell extracts were prepared by lysis of cells in RIPA buffer plus protease inhibitors for denaturing SDS gel electrophoresis on a 12% denaturing polyacrylamide gel. Acetylated histones H3 and H4 and marker protein HDAC 2 were detected by Western blot analysis using an anti-acetyl Histone H3 antibody (Upstate, #06-942), an anti-acetyl Histone H4 antibody (clone T25; patent application EP 02.021984.6), and an anti-HDAC 2 antibody (SCBT, SC-7899). As an equal loading control PVDV membranes were stained with Coomassie.

HDAC 2 = test: as above; assay type: in vivo, human; conditions: patients with serum levels above the therapeutic plasma concentration
Protocol: as §2, §3

HDAC class I = molecular target: T1, HDAC class I (Homo sapiens, UniProt Q13547); test: in vitro HDAC assay, IC50 stated for the enzyme class; assay type: biochemical; conditions: class I enzyme inhibition
T1 construct: made in house; host or cells: High5 insect cells
T1 sequence (Q13547 whole entry): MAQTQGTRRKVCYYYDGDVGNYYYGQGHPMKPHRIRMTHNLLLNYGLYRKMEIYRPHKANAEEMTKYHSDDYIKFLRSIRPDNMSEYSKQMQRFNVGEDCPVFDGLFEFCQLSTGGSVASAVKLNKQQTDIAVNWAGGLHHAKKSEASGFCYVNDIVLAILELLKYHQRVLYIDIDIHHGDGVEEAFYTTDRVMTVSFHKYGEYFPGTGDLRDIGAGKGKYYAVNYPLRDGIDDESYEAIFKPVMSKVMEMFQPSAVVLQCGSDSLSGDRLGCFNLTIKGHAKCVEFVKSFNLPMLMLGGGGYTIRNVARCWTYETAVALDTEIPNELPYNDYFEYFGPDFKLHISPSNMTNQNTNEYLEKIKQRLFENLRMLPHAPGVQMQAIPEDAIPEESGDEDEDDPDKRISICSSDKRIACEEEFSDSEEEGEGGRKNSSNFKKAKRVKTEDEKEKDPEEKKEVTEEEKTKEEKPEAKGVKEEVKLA
Source text: (§4) IC50 values may be calculated from dose-response curves. […] Biochem J. Aug. 15, 2000;350 Pt 1:199-205.

Colo320DM cell line = test: SRB proliferation assay, interval treatment; assay type: cell-based; conditions: Homo sapiens, COLO 320DM, 1 mM VPA, read-out: growth inhibition
Protocol: (§5) SRB proliferation assay: The reduction in cellular biomass was measured by SRB-assay. For this assay cells were seeded in 96 well culture dishes at densities between 3000 and 8000 cells per well. […] Cells were fixed with cold Trichloracetat (TCA) producing a final TCA concentration of 10%. After 1 hour of incubation at 4° C. the cells were washed five times with water and air dried. Fixed cells were stained for 30 minutes with 0.4% (wt/vol) Sulforhodamine B (SRB) dissolved in 1% acetic acid and washed four times with 1% acetic acid to remove unbound dye. After air drying bound dye was solubilized with 10 mM unbuffered Tris base (pH 10.5) for 5 minutes. Optical densities (OD) were read on a Molecular Devices Versa Max tunable microplate reader at 520-550 nm. Four test wells for each dose-response were set in parallel with 12 control wells per cell line. Measurement of the cell population density at time 0 (T0; the time at which the drug was added) was also made from 12 reference wells of cells fixed with TCA just prior to drug addition to the test plates. Background OD of complete medium with 5% FBS fixed and stained as described above was also determined in 12 separate wells. From the unprocessed OD data from each microtiter plate the background OD measurements (i.e. OD of complete medium plus stain and OD of cells at T0) were subtracted thus giving the reduction of cellular biomass of the cells.

PC-3 cell line = test: SRB proliferation assay, interval treatment; assay type: cell-based; conditions: Homo sapiens, read-out: growth inhibition
Protocol: as §5

Histone H3 in 293T cells = test: Western blot of 293T cells treated by release-pattern schemes; assay type: cell-based
Protocol: Whole cell extracts were prepared by lysis of cells in RIPA buffer plus protease inhibitors for denaturing SDS gel electrophoresis on a 12% denaturing polyacrylamide gel. Acetylated histones H3 were detected by Western blot analysis using an anti-acetylated H3 antibody (Upstate, #06-942).

[1] = test system: PC3 prostate carcinoma cells; test: PC-3 mouse xenograft model; assay type: in vivo
Protocol: 24 athymic Nu/Nu^−/− mice were injected with 1×10^6 PC3 prostate carcinoma cells in 100 μl PBS into the right flank (8 animals per group). Tumors were allowed to grow for 4 days. Animals were treated with PBS (control), 2×200 mg/kg/d or 2×400 mg/kg/d, respectively, from day 5 until day 21. Tumor volumes were measured every 3-4 days.
Mouse Xenograft Model: 24 athymic Nu/Nu^−/− (Harlan) mice were injected with 1×10^6 PC3 prostate carcinoma cells in 100 μl PBS into the right flank (8 animals per group). Tumors were allowed to grow for 4 days. […] Tumor volumes were measured every […].

HDAC 1 = molecular target: T2, HDAC 1 (Homo sapiens, UniProt Q13547); test: in vitro HDAC assay with recombinant HDAC proteins (Fluor de Lys substrate); assay type: biochemical; conditions: recombinant protein purified from High 5 insect cells; read-out: IC50 for HDAC 1 (class I)
T2 construct: made in house; host or cells: High5 insect cells
T2 sequence (Q13547 whole entry): as above
Source text: as §4

Sequence of HDAC 8 (Homo sapiens) (Q9UBN7 whole entry): as the sequence (Q9UBN7 whole entry) above

IC50 (HDAC 8 (Homo sapiens)): ~1100 µM
IC50 (HDAC 6): 1100 µM
IC50 (HDAC class I): ~200 µM and 200 µM
IC50 (HDAC 1): 200 µM and ~200 µM
Structure (SMILES): CCCC(CCC)C(=O)O [VPA, 2-propyl-pentanoic acid]
correlation of VPA serum peak levels with induction of histone hyperacetylation (Histone H3 and H4; peripheral blood cells before and 6 h, 24 h, 48 h after treatment start, intravenous VPA): clear correlation
histone H3 and H4 hyperacetylation (Histone H3 and H4; peripheral blood cells, patients with serum levels above the therapeutic plasma concentration): could be detected
regulation of the marker protein HDAC 2 (HDAC 2): down regulation
inhibition at 1000 µM (Colo320DM cell line; 2×8 hours exposure, 40 h treatment free interval ("8 h d")): 27%
inhibition at 1000 µM (Colo320DM cell line; 2×20 hours exposure, 26 h treatment free interval ("20 h d")): 57%
inhibition at 1000 µM (Colo320DM cell line; 66 h, continuous exposure 66 h): 80%
inhibition at 1000 µM (PC-3 cell line; PC-3, 66 h, PC3, 1 mM VPA, continuous exposure 66 h): 57%
inhibition at 1000 µM (PC-3 cell line; PC-3, PC3, 1 mM VPA, 2×8 hours exposure, 40 h treatment free interval ("8 h d")): 26%
inhibition at 1000 µM (PC-3 cell line; PC-3, PC3, 1 mM VPA, 2×20 hours exposure, 26 h treatment free interval ("20 h d")): 43%
degree of histone hyperacetylation (Histone H3 in 293T cells; VPA above IC50 for class I HDAC, exposure 6 h, 15 h, 24 h): strongly enhanced when the period of exposure is prolonged
degree of histone hyperacetylation induction, "fast release" or "slow release" exposure each on their own compared with bi-phasic PEAC exposure (Histone H3 in 293T cells; Western blot): less effective
anti-tumoral effect ([1]; 200 mg/kg/d twice daily, day 5 until day 21): no anti-tumoral effect
PC-3 tumor volume reduction ([1]; 400 mg/kg/d twice daily, day 5 until day 21, compared to PBS control): > 25%
